Assay [1] is described as follows: cells. As to conditions: Homo sapiens, HeLa, 48 h.
The nature of assay [2]: cells. As to conditions: Homo sapiens, ECa-109, 48 h.
The nature of assay [3]: cells. As to conditions: Homo sapiens, DU-145, 48 h.
A short description of assay [4]: cells. As to conditions: Homo sapiens, MCF7, 48 h.

SMILES strings stand for the structures.

One may read the IC50 as the concentration that inhibits the measured activity by half. Higher therefore signals weaker potency in that assay.

With `O=C(/C=C/c1ccc(O)c(O)c1)OCCc1ccc(F)cc1`, the IC50 in the assay “cells [1]” worked out at 35.8 µM; in “cells [2]” it was 51.9 µM; in “cells [3]” it was 12.8 µM; in “cells [4]”, 29.9 µM.
On the same counts, the results for `Cc1ccc(CCOC(=O)/C=C/c2ccc(O)c(O)c2)cc1` are 25.8 µM, 20.9 µM, 36.9 µM and 20.6 µM.
On the same counts, the results for `COc1ccc(CCOC(=O)/C=C/c2ccc(O)c(O)c2)cc1` are 67.7 µM, 111 µM, 67.5 µM and 78 µM.
On the same counts, the results for `O=C(/C=C/c1ccc(O)c(O)c1)OCCc1ccc(Br)cc1` are 56.8 µM, 40.3 µM, 35.4 µM and 28.2 µM.
Consider `O=C(/C=C/c1ccc(O)c(O)c1)OCCc1ccccc1O`, for which the IC50 in the assay “cells [1]” turned out to be 29.4 µM; in “cells [2]”, 40.2 µM; in the assay “cells [3]” it was 24.4 µM; in “cells [4]”, 21.8 µM.
The corresponding values for `CCc1ccccc1CCOC(=O)/C=C/c1ccc(O)c(O)c1` are 4.2 µM, 7.3 µM, 4.7 µM and 8.7 µM.
The corresponding values for `Cc1ccccc1CCOC(=O)/C=C/c1ccc(O)c(O)c1` are 2.3 µM, 8.2 µM, 6.6 µM and 2.5 µM.
The corresponding values for `CC(C)Oc1ccccc1CCOC(=O)/C=C/c1ccc(O)c(O)c1` are 3.2 µM, 15.1 µM, 9.1 µM and 5.6 µM.
As to `Cc1cccc(CCOC(=O)/C=C/c2ccc(O)c(O)c2)c1`, the IC50 came out at 5.4 µM in the assay “cells [1]”, 16.7 µM in “cells [2]”, 21.4 µM in the assay “cells [3]” and 26.3 µM in the assay “cells [4]”.
As for `O=C(/C=C/c1ccc(O)c(O)c1)OCCc1ccc(Cl)cc1`, the half-maximal inhibitory concentration (IC50) in the assay “cells [1]” was 22.5 µM; in “cells [2]” it was 28.4 µM; in “cells [3]” it was 22.1 µM; in the assay “cells [4]”, 17.6 µM.
On the same counts, the results for `COc1ccccc1CCOC(=O)/C=C/c1ccc(O)c(O)c1` are 1.6 µM, 5.9 µM, 2 µM and 7.1 µM.
The corresponding values for `O=C(/C=C/c1ccc(O)c(O)c1)OCCc1ccccc1` [CAFFEIC ACID PHENETHYL ESTER] are 33 µM, 47.5 µM, 16 µM and 28.8 µM.
Turning to `CC(=O)O[C@H]1C(=O)[C@@]2(C)[C@H]([C@H](OC(=O)c3ccccc3)[C@]3(O)C[C@H](OC(=O)[C@H](O)[C@@H](NC(=O)c4ccccc4)c4ccccc4)C(C)=C1C3(C)C)[C@]1(OC(C)=O)CO[C@@H]1C[C@@H]2O` [PACLITAXEL], the IC50 in the assay “cells [1]” was determined as 0.036 µM; in “cells [2]”, 0.94 µM; in the assay “cells [3]”, 0.011 µM; in “cells [4]”, 0.63 µM.
On the same counts, the results for `O=C(/C=C/c1ccc(O)c(O)c1)OCCc1ccc(O)cc1` [TYROSOL CAFFEATE] are 45.8 µM, 49.4 µM, 51.9 µM and 53.2 µM.

The values above are taken from ChEMBL document CHEMBL3872276, “Antiproliferative activity and SARs of caffeic acid esters with mono-substituted phenylethanols moiety” (Bioorg Med Chem Lett, 2017).
